Reference: patent publication US20240358693A1, “METHODS OF TREATING PAIN” (Aisa Pharma, Inc., priority 2023, published 2024)

Tested on: participants with Raynaud's Phenomenon secondary mostly to systemic sclerosis (SSc-RP)
Experiment: Frequency of weekly symptomatic RP attacks (patient diary), Phase 2a study Part A
Type: in vivo, human
Experimental: A randomized, placebo-controlled phase 2a study was performed and is in progress to assess the safety and efficacy of cilnidipine (10 mg and 20 mg) alone and in combination with 5 mg tadalafil, in participants with diagnosis of scleroderma and/or secondary Raynaud's disease.
The relevant metrics measured by this tool daily are: • Study medication • SSc-RP symptoms (Reporting an attack including duration of attack) • Severity of the attack considering all symptoms of the attack e.g., tingling, numbness, pain, color changes (VAS 0-10 cm scale) • Participant's location at the time of the attack (inside home/outside home) • Selecting symptoms experienced during the attack (tingling, numbness, pain, color changes, other) • Pain rating during the attack (11-point Likert scale) • The RCS based on how much difficulty participants had with Raynaud's today, how many attacks the participant had, and how long they lasted. Participants will also be asked to consider how much pain, numbness, or other symptoms the Raynaud's caused in fingers (including painful sores), and how much the Raynaud's alone affected the use of hands today (VAS 0-10 cm scale).
Percent change from baseline evaluation for frequency of weekly RP attacks were or will be used as the primary efficacy variable. The sponsor-developed participant-informed diary will be used to record data. Frequency of weekly RP attacks is defined as the total number of RP attacks divided by the number of days with available diary data within the last 7 days of each dosing period then multiplied by 7. Total number of RP attacks during the last 7 days of screening period divided by the number of days with available data then multiplied by 7 will be used as baseline for the analysis of all periods. The variable will be calculated as follows:
Percentage change={(weekly RP attacks for the last 7 days of each dosing period−Baseline weekly RP attacks)/Baseline weekly RP attacks}*100%.
Absolute change=weekly RP attacks for the last 7 days of each dosing period−Baseline weekly RP attacks
Percent change from baseline evaluation for frequency of weekly RP attacks was and will be the primary efficacy endpoint. Frequency of weekly RP attacks is defined as the total number of RP attacks divided by the number of days with available diary data within the last 7 days of each dosing period then multiplied by 7. Total number of RP attacks during the last 7 days of screening period divided by the number of days with available data then multiplied by 7 will be used as baseline for the analysis of all periods.
The following data was actually obtained in accordance with the protocol and plan delineated in Examples 1 and 2. The accompanying data involved 11 patients out of the planned 76 patient study. The study was done in patients with scleroderma (systemic sclerosis) who had relatively frequent Raynaud symptoms as they needed to average at least one attack per day during a screening period of up to two weeks. In this first phase of this double-blind placebo-controlled, prospective randomized study, patients were treated in parallel and after meeting study criteria were randomized to receive either placebo, cilnidipine 10 mg daily, cilnidipine 20 mg daily, tadalafil 5 mg daily, cilnidipine 10 mg plus 5 mg of tadalafil, or cilnidipine 20 mg plus 5 mg of tadalafil.

[1] = Tadalafil 5 mg (N = 2), ITT Part A
[2] = Tadalafil 5 mg, n 1, Excluding Outliers, ITT Part A
[3] = Tadalafil 5 mg, n 2, by Baseline RCS, 2nd block (RCS >5.0), ITT Part A
[4] = excluding outliers, by baseline RCS, second subgroup, cilnidipine 10 mg, tadalafil 5 mg daily

Structure (SMILES): CN1CC(=O)N2[C@H](c3ccc4c(c3)OCO4)c3[nH]c4ccccc4c3C[C@@H]2C1=O [Tadalafil, tadalafil]
- Weekly Symptomatic RP Attacks Change from Baseline, Mean [1]: 4.50
- Weekly Symptomatic RP Attacks Change from Baseline, Median [1]: 4.50
- Weekly Symptomatic RP Attacks Percent Change from Baseline, Mean [1]: 62.50%
- Weekly Symptomatic RP Attacks Percent Change from Baseline, Median [1]: 62.50%
- Weekly Symptomatic RP Attacks, Mean [1]: 12.50
- Weekly Symptomatic RP Attacks, Median [1]: 12.50
- Weekly Symptomatic RP Attacks Change from Baseline, Mean (SD) [2]: 6.00
- Weekly Symptomatic RP Attacks Change from Baseline, Median [2]: 6.00
- Weekly Symptomatic RP Attacks Percent Change from Baseline, Mean (SD) [2]: 50.00%
- Weekly Symptomatic RP Attacks Percent Change from Baseline, Median [2]: 50.00%
- Weekly Symptomatic RP Attacks, Mean (SD) [2]: 18.00
- Weekly Symptomatic RP Attacks, Median [2]: 18.00
- Weekly Symptomatic RP Attacks Change from Baseline, Mean (SD) [3]: 4.50 (2.121)
- Weekly Symptomatic RP Attacks Change from Baseline, Median [3]: 4.50
- Weekly Symptomatic RP Attacks Percent Change from Baseline, Mean (SD) [3]: 62.50 (17.678) %
- Weekly Symptomatic RP Attacks Percent Change from Baseline, Median [3]: 62.50%
- Weekly Symptomatic RP Attacks, Mean (SD) [3]: 12.50 (7.778)
- Weekly Symptomatic RP Attacks, Median [3]: 12.50
- Weekly Symptomatic RP Attacks Change from Baseline, Max [4]: 6.0, 6.0
- Weekly Symptomatic RP Attacks Change from Baseline, Mean (SD) [4]: 6.00
- Weekly Symptomatic RP Attacks Change from Baseline, Median [4]: 6.00
- Weekly Symptomatic RP Attacks Change from Baseline, Min [4]: 6.0, 6.0
- Weekly Symptomatic RP Attacks Change from Baseline, Q1 [4]: 6.00, 6.00
- Weekly Symptomatic RP Attacks Change from Baseline, Q3 [4]: 6.00, 6.00
- Weekly Symptomatic RP Attacks Percent Change from Baseline, Max [4]: 50.0, 50.0%
- Weekly Symptomatic RP Attacks Percent Change from Baseline, Mean (SD) [4]: 50.00%
- Weekly Symptomatic RP Attacks Percent Change from Baseline, Median [4]: 50.00%
- Weekly Symptomatic RP Attacks Percent Change from Baseline, Min [4]: 50.0, 50.0%
- Weekly Symptomatic RP Attacks Percent Change from Baseline, Q1 [4]: 50.00, 50.00%
- Weekly Symptomatic RP Attacks Percent Change from Baseline, Q3 [4]: 50.00, 50.00%
- Weekly Symptomatic RP Attacks, Max [4]: 18.0, 18.0
- Weekly Symptomatic RP Attacks, Mean (SD) [4]: 18.00
- Weekly Symptomatic RP Attacks, Median [4]: 18.00
- Weekly Symptomatic RP Attacks, Min [4]: 18.0, 18.0
- Weekly Symptomatic RP Attacks, Q1 [4]: 18.00, 18.00
- Weekly Symptomatic RP Attacks, Q3 [4]: 18.00, 18.00
